Here are results for 29 compounds from patent US20250171431A1, “HETEROCYCLIC INHIBITORS OF IGF-1R FOR TREATMENT OF DISEASE” (HORIZON THERAPEUTICS IRELAND DAC, priority 2023, published 2025).

Chain of IGF-1R (P08069 31-1367): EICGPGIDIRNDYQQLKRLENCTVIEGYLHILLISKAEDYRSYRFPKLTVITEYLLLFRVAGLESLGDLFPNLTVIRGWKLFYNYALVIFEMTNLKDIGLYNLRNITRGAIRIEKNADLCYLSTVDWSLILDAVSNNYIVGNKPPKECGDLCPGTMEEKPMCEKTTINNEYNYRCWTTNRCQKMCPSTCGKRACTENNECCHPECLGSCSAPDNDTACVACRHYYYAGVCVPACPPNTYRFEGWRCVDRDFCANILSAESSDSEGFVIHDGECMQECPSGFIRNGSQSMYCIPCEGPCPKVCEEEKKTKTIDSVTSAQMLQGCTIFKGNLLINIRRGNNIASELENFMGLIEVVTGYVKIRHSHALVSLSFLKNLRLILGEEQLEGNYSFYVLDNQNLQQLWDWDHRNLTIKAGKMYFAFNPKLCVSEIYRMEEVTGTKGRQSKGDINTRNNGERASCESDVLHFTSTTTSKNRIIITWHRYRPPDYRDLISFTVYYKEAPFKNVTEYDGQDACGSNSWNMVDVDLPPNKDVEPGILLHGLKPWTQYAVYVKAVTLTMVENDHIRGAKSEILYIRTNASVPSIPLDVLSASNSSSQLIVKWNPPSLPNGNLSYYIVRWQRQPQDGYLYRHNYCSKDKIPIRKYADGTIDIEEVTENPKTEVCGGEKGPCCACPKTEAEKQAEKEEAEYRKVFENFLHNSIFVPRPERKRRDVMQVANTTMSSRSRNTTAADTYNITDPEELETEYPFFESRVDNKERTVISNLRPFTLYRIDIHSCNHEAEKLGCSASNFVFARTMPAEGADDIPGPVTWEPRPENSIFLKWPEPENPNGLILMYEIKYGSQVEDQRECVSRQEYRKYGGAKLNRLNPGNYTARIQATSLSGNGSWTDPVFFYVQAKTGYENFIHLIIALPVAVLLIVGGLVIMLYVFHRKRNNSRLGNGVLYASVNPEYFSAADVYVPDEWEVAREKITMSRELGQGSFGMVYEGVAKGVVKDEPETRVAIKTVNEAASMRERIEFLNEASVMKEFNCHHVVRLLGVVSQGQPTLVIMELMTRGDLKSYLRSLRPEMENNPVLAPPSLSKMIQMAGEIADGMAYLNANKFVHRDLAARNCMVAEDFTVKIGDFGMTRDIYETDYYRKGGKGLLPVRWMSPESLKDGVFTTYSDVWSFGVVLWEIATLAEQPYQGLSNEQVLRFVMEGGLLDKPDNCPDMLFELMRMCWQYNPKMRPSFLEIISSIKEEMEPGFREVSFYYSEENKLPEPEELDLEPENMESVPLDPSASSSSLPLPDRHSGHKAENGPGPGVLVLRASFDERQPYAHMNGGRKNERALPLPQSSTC

The test has as its target IGF-1R (Homo sapiens (Human), UniProt P08069). Nature of the test: Example B-1: IGF-1R Assay (PC3 cells, IGF1 stimulation, AlphaLISA). Type of test: cell-based. Particulars: 200 ng/mL IGF1 stimulation, read-out: Biological Activity against IGF-1R IC50. The procedure:
50K PC3 cells were seeded on day 1 in 50 μL of media in 96-well plate and incubated overnight at 37° C., 5% CO2. On day 2, all cells were expected to be at 80-90% confluency. Cells were starved for two hours by changing the media to 90 μL of EMEM serum-free media and incubated for 2 hours. Next, cells were treated with 10 μL of 10× concentrated and 3× serially diluted compounds for two hours. It makes 1× of compounds in 100 μL media. This was followed by stimulation of cells with 11×IGF1 for 30 min in 10 μL of serum-free EMEM media at the final concentration of 200 ng/mL.
The media was removed and replaced by 50 μL of 1× lysis buffer from the AlphaLISA kit (with 1× of cOmplete™ protease inhibitor). The plates were sealed, and cells were allowed to lyse for 10 min in the shaker before storing the plate at −20° C. until used. The AlphaLISA assay with processed cell lysates were performed as described in the protocol. Briefly, 10 μL of the undiluted sample were loaded to 384 well Optiplates and 5 μL of the acceptor mix (as described in the AlphaLISA kit) was added to each well. The plates were sealed and briefly vortexed followed by the incubation at RT for 3 hours. In the dark, 5 μL of donor mix was added to each well. All plates were sealed and stored at RT overnight. The plates were read in EnVision reader using standard AlphaLISA settings.
Compound activity was analyzed using CBIS data analysis suite (ChemInnovation, CA). Percentage inhibition was calculated using the following formula: % Inhibition=100%×(1−(mean RLU of test sample−mean RLU of vehicle control)/(mean RLU of EC80 control−mean RLU of vehicle control)). The activity for representative examples of the invention is shown in the following table, wherein A: IC50≤500 nM; B: 500 nM<IC50≤2 μM; C: 2 μM<IC50≤10 μM; D: IC50>10 μM.
On to `CN(C)[C@H]1C[C@H](Oc2ccc(Nc3nccc(Nc4cnc5ccccc5c4)n3)cc2C(F)(F)F)C1` [Compound 36, 4-(3-quinolylamino)-2-{4-[(1r,3r)-3-(dimethylamino)cyclobutoxy]-3-(trifluoromethyl)phenylamino} pyrimidine], for which the IC50 is at most 500 nM.

With `COc1cc(Nc2nccc(Nc3cnc4ccccc4c3)n2)ccc1OC1CN(C)C1` [Compound 37, 2-[3-methoxy-4-(1-methyl-3-azetidinyloxy)phenylamino]-4-(3-quinolylamino)pyrimidine], the IC50 is at most 500 nM.

Regarding `O=S1(=O)CCN([C@H]2CC[C@@H](Oc3ccc(Nc4nccc(Nc5cnc6ccccc6c5)n4)cc3)CC2)CC1` [Compound 38, 4-[(1s,4s)-4-{p-[4-(3-quinolylamino)-2-pyrimidinylamino]phenoxy}cyclohexyl]-126,4-thiazinane-1,1-dione], the IC50 is at most 500 nM.

With `c1ccc2ncc(Nc3ccnc(Nc4ccc(O[C@H]5CC[C@@H](N6CCOCC6)CC5)cc4)n3)cc2c1` [Compound 39, 4-(3-quinolylamino)-2-{p-[(1s, 4s)-4-morpholinocyclohexyloxy]phenylamino}pyrimidine], the half-inhibitory concentration (IC50) is at most 500 nM.

As to `CN(C)[C@H]1CC[C@@H](Oc2ccc(Nc3nccc(Nc4cnc5ccccc5c4)n3)cc2)CC1` [Compound 40, 4-(3-quinolylamino)-2-{p-[(1s,4s)-4-(dimethylamino)cyclohexyloxy]phenylamino}pyrimidine], the IC50 was at most 500 nM.

As to `O=C1CN([C@H]2CC[C@@H](Oc3ccc(Nc4nccc(Nc5cnc6ccccc6c5)n4)cc3)CC2)CCN1` [Compound 41], the half-inhibitory concentration (IC50) is at most 500 nM.

Turning to `CN(C)[C@H]1C[C@H](Oc2ccc(Nc3nccc(Nc4cnc5ccccc5c4)n3)cc2C#N)C1` [Compound 42, 5-[4-(3-quinolylamino)-2-pyrimidinylamino]-2-[(1r,3r)-3-(dimethylamino)cyclobutoxy] benzonitrile], the IC50 is at most 500 nM.

Consider `CN(C)[C@H]1C[C@@H](Oc2ccc(Nc3nccc(Nc4cnc5c(c4)OCCO5)n3)cc2C#N)C1` [Compound 43, 5-[4-(2,3-dihydro-1,4-dioxa-5-aza-7-naphthylamino)-2-pyrimidinylamino]-2-[(1s,3s)-3-(dimethylamino)cyclobutoxy] benzonitrile], for which the IC50 was at most 500 nM.

For `COc1cc(Nc2nccc(Nc3cnc4c(c3)OCCO4)n2)cc(C#N)c1O[C@H]1C[C@H](N(C)C)C1` [Compound 44, 5-[4-(2,3-dihydro-1,4-dioxa-5-aza-7-naphthylamino)-2-pyrimidinylamino]-3-methoxy-2-[(1r,3r)-3-(dimethylamino)cyclobutoxy] benzonitrile], the IC50 was at most 500 nM.

With `CN1CC2(Cc3ccc(Nc4nccc(Nc5cc6cccc(F)c6[nH]c5=O)n4)cc3O2)C1` [Compound 45, 8-fluoro-3-{2-(1-methyl-3′H-spiro[azetidine-3,2′-[1]benzofuran]-6′-ylamino)-4-pyrimidinylamino}-1,2-dihydro-2-quinolinone], the IC50 was at most 500 nM.

`CN(C)[C@H]1C[C@@H](Oc2ncc(Nc3nccc(Nc4cnc5c(c4)OCCO5)n3)cc2C#N)C1` [Compound 46, 5-[4-(2,3-dihydro-1,4-dioxa-5-aza-7-naphthylamino)-2-pyrimidinylamino]-2-[(1s,3s)-3-(dimethylamino)cyclobutoxy] nicotinonitrile]: the IC50 is at most 500 nM.

`COCCN(C)[C@H]1C[C@@H](Oc2ccc(Nc3nccc(Nc4cnc5cc(F)c(F)cc5c4)n3)cc2OC)C1` [Compound 47, 4-(6,7-difluoro-3-quinolylamino)-2-(3-methoxy-4-{(1s,3s)-3-[(2-methoxyethyl)-N-methylamino]cyclobutoxy}phenylamino)pyrimidine]: the concentration for half-maximal inhibition (IC50) is at most 500 nM.

Turning to `COc1cc(Nc2nccc(Nc3cnc4cc(F)c(F)cc4c3)n2)cnc1N1CC(N(C)C)C1` [Compound 48, 4-(6,7-difluoro-3-quinolylamino)-2-{6-[3-(dimethylamino)-1-azetidinyl]-5-methoxy-3-pyridylamino}pyrimidine], the half-inhibitory concentration (IC50) was at most 500 nM.

As to `COc1cc(Nc2nccc(Nc3cnc4cc(F)c(F)cc4c3)n2)cnc1N1CCN(CC#N)CC1` [Compound 49], the IC50 was at most 500 nM.

For `COc1cc(Nc2nccc(Nc3cnc4cc(F)c(F)cc4c3)n2)cnc1N1CC2(COC2)C1` [Compound 50, 4-(6,7-difluoro-3-quinolylamino)-2-{5-methoxy-6-(2-oxa-6-aza-6-spiro[3.3]heptyl)-3-pyridylamino}pyrimidine], the IC50 is at most 500 nM.

On to `COc1cc(Nc2nccc(Nc3cnc4cc(F)c(F)cc4c3)n2)cnc1N1CCN(C2COC2)CC1` [Compound 51, 4-(6,7-difluoro-3-quinolylamino)-2-{5-methoxy-6-[4-(3-oxetanyl)-1-piperazinyl]-3-pyridylamino}pyrimidine], for which the IC50 is at most 500 nM.

For the compound `COc1cc(Nc2nccc(Nc3cnc4cc(F)c(F)cc4c3)n2)cnc1N1CCNC(C(C)(C)O)C1` (centres unmarked) [Compound 52, 2-(4-{5-[4-(6,7-difluoro-3-quinolylamino)-2-pyrimidinylamino]-3-methoxy-2-pyridyl}-2-piperazinyl)-2-propanol], the concentration for half-maximal inhibition (IC50) is at most 500 nM.

On to `COc1cc(Nc2nccc(Nc3cnc4c(c3)COCC4)n2)ccc1OCCCN1CCCCC1` [Compound 53, 4-(7,8-dihydro-5H-6-oxa-1-azanaphth-3-ylamino)-2-[3-methoxy-4-(3-piperidinopropoxy)phenylamino] pyrimidine], for which the half-inhibitory concentration (IC50) is at most 500 nM.

As for `COc1cc(Nc2nccc(Nc3cnc4c(c3)CCOC4)n2)ccc1OCCCN1CCCCC1` [Compound 54, 4-(6,8-dihydro-5H-7-oxa-1-azanaphth-3-ylamino)-2-[3-methoxy-4-(3-piperidinopropoxy)phenylamino] pyrimidine], the IC50 was at most 500 nM.

Turning to `COc1cc(Nc2nccc(Nc3cnc4c(c3)C3CCC4C3)n2)ccc1OCCCN1CCCCC1` (centres unmarked) [Compound 56, 4-(3-azatricyclo[6.2.1.0^2,7]undeca-2,4,6-trien-5-ylamino)-2-[3-methoxy-4-(3-piperidinopropoxy)phenylamino] pyrimidine], the 50% inhibitory concentration (IC50) is at most 500 nM.

On to `COc1cc(Nc2nccc(Nc3cnc4c(c3)CCCCC4)n2)ccc1OCCCN1CCCCC1` [Compound 57, 4-{8-azabicyclo[5.4.0]undeca-1(11),7,9-trien-10-ylamino}-2-[3-methoxy-4-(3-piperidinopropoxy)phenylamino] pyrimidine], for which the IC50 was at most 500 nM.

In the case of `COc1cc(Nc2nccc(Nc3cnc4c(c3)C3CCC(C4)O3)n2)ccc1OCCCN1CCCCC1` (centres unmarked) [Compound 60, 2-[3-methoxy-4-(3-piperidinopropoxy)phenylamino]-4-{12-oxa-6-azatricyclo[7.2.1.0^2,7]dodeca-2(7),3,5-trien-4-ylamino}pyrimidine], the half-inhibitory concentration (IC50) was 500 to 2000 nM.

`COc1cc(Nc2nccc(Nc3cnc4c(c3)SC(C)CC4)n2)ccc1OCCCN1CCCCC1` (centres unmarked) [Compound 61, 2-[3-methoxy-4-(3-piperidinopropoxy)phenylamino]-4-(2-methyl-3,4-dihydro-2H-1-thia-5-azanaphth-7-ylamino)pyrimidine]: the half-maximal inhibitory concentration (IC50) is at most 500 nM.

Regarding `COc1cc(Nc2nccc(Nc3cnc4c(c3)CC(C)CC4)n2)ccc1OCCCN1CCCCC1` (centres unmarked) [Compound 62, 2-[3-methoxy-4-(3-piperidinopropoxy)phenylamino]-4-(6-methyl-5,6,7,8-tetrahydro-3-quinolylamino)pyrimidine], the IC50 is at most 500 nM.

With `CC1(C)CCc2ncc(Nc3ccnc(Nc4ccc(OCCCN5CCOCC5)cc4)n3)cc2C1` [Compound 63, 4-(6,6-dimethyl-5,6,7,8-tetrahydro-3-quinolylamino)-2-[p-(3-morpholinopropoxy)phenylamino] pyrimidine], the concentration for half-maximal inhibition (IC50) is at most 500 nM.

`CC1(C)CCc2cc(Nc3ccnc(Nc4ccc(OCCCN5CCOCC5)cc4)n3)cnc2C1` [Compound 64, 4-(7,7-dimethyl-5,6,7,8-tetrahydro-3-quinolylamino)-2-[p-(3-morpholinopropoxy)phenylamino] pyrimidine]: the IC50 is at most 500 nM.

On to `CC1(C)COc2cc(Nc3ccnc(Nc4ccc(OCCCN5CCOCC5)cc4)n3)cnc2O1` [Compound 65, 4-(3,3-dimethyl-2,3-dihydro-1,4-dioxa-5-aza-7-naphthylamino)-2-[p-(3-morpholinopropoxy)phenylamino]pyrimidine], for which the half-inhibitory concentration (IC50) is at most 500 nM.

In the case of `COC1CCc2cc(Nc3ccnc(Nc4ccc(OCCCN5CCOCC5)cc4)n3)cnc2C1` (centres unmarked) [Compound 66, 4-(7-methoxy-5,6,7,8-tetrahydro-3-quinolylamino)-2-[p-(3-morpholinopropoxy)phenylamino] pyrimidine], the half-maximal inhibitory concentration (IC50) lay within 500 to 2000 nM.

As for `COC1CCc2ncc(Nc3ccnc(Nc4ccc(OCCCN5CCOCC5)cc4)n3)cc2C1` (centres unmarked) [Compound 67, 4-(6-methoxy-5,6,7,8-tetrahydro-3-quinolylamino)-2-[p-(3-morpholinopropoxy)phenylamino] pyrimidine], the half-inhibitory concentration (IC50) lay within 500 to 2000 nM.
